Experiment [1] deals with BIR3 domain of human cIAP-1 (residues 267-363) (Homo sapiens (Human), UniProt Q13490). Kind of experiment: cIAP-1 in vitro competitive displacement binding assay (fluorescence polarization; Probe A AVPIK(5&6FAM)-amide or Probe B AbuRPFK(5&6FAM)-amide).
Experiment [2] has as its target BIR3 domain of human XIAP (residues 252-350) (Homo sapiens (Human), UniProt P98170). Kind of experiment: XIAP in vitro competitive displacement binding assay (fluorescence polarization). To be noted: for IC50: read-out: IC50 or PI Xiap: IC50.
[3] abbreviates: 3 h, Probe A, read-out: IC50 or PI cIAP1: PI.
Setting [4] is: Probe A AVPIK(5&6FAM)-amide, read-out: IC50 or PI cIAP1: IC50.
The mark [5] stands for this setting: Probe B AbuRPFK(5&6FAM)-amide, read-out: IC50 or PI cIAP1: IC50.
Setting [6] is: read-out: IC50 or PI cIAP1: IC50.

Counter-ions that a name gives are not always drawn. Like-named read-outs stand apart in the source and are kept apart here.

Inhibition and IC50 data for 28 molecules are collected here from US9018214B2, “Bicyclic heterocycle compounds and their uses in therapy” (Astex Therapeutics Limited, priority 2011, dated 2015).

`CC1(C)CN(C(=O)CN2CCNC(C(F)(F)F)C2)c2cc(Cc3ccccc3)ncc21` (centres unmarked) [Example 113, 1-{6-Benzyl-3,3-dimethyl-1H,2H,3H-pyrrolo[3,2-c]pyridin-1-yl}-2-[3-(trifluoromethyl)piperazin-1-yl]ethan-1-one]: the inhibition at 100 µM in experiment [1] (3 h, Probe B, @ 100 μM, read-out: IC50 or PI cIAP1: PI) is 6%.

In the case of `C[C@@H]1CN(CC(=O)N2CCc3ccc(C(=O)N(C)C)cc32)CCN1` [Example 17, 1-[2-((R)-3-Methyl-piperazin-1-yl)-acetyl]-2,3-dihydro-1H-indole-6-carboxylic acid dimethylamide], the half-inhibitory concentration (IC50) in experiment [2] was determined as 110 µM. For the same molecule, the inhibition at 160 µM in experiment [1] (setting [3]) was 44%.

As for `C[C@@H]1CN(CC(=O)N2CCc3cnc(-c4cc(Cl)ccc4F)cc32)CCN1` [Example 38, 1-[6-(5-Chloro-2-fluoro-phenyl)-2,3-dihydro-pyrrolo[3,2-c]pyridin-1-yl]-2-((R)-3-methyl-piperazin-1-yl)-ethanone hydrochloride salt], the figures for the IC50 in experiment [2], in experiment [1] and in experiment [1] (setting [4]) were 5.5 µM, less than 10 µM and 2.1 µM, respectively.

Regarding `COC[C@H]1CN[C@H](C)CN1CC(=O)N1CC(C)(C)c2cnc(CC(C)C)cc21` [Example 72, 1-(6-Isobutyl-3,3-dimethyl-2,3-dihydro-pyrrolo[3,2-c]pyridin-1-yl)-2-((2R,5R)-2-methoxymethyl-5-methyl-piperazin-1-yl)-ethanone], the IC50 in experiment [1] (setting [5]) amounted to 0.31 µM.

Consider `CNC(=O)c1ccc2c(c1)N(C(=O)CN1CCN[C@H](C)C1)CC2` [Example 16, 1-[2-((R)-3-Methyl-piperazin-1-yl)-acetyl]-2,3-dihydro-1H-indole-6-carboxylic acid methylamide], for which, in experiment [2] (1 h, @ 77 μM, read-out: IC50 or PI Xiap: PI), the inhibition at 77 µM came out at 42%. Further, the inhibition at 250 µM in experiment [1] (3 h, Probe A, @ 250 μM, read-out: IC50 or PI cIAP1: PI) came out at 56%.

Consider `C[C@@H]1CN(CC(=O)N2CC3(CC3)c3ccc(Cl)cc32)CCN1` [Example 53, 1-{6′-Chloro-1′,2′-dihydrospiro[cyclopropane-1,3′-indole]-1′-yl}-2-[(3R)-3-methyl-piperazin-1-yl]ethan-1-one hydrochloride salt], for which the IC50 in experiment [2] was determined as 9.7 µM; in experiment [1] (setting [5]), 9.8 µM.

`COC[C@H]1CN[C@H](C)CN1CC(=O)N1CC(C)(C)c2cnc(Cc3ccc(OC)cc3)cc21` [Example 98, 2-[(2R,5R)-2-(Methoxymethyl)-5-methylpiperazin-1-yl]-1-{6-[(4-methoxyphenyl)methyl]-3,3-dimethyl-1H,2H,3H-pyrrolo[3,2-c]pyridin-1-yl}ethan-1-one, hydrochloride salt]: the IC50 in experiment [1] (setting [5]) came out at 0.023 µM.

Consider `COC[C@H]1CN[C@H](C)CN1CC(=O)N1C[C@@](C)(COC)c2ccc(Br)cc21` [Example 169, 1-[(3S)-6-Bromo-3-(methoxymethyl)-3-methyl-2,3-dihydro-1H-indol-1-yl]-2-[(2R,5R)-2-(methoxymethyl)-5-methylpiperazin-1-yl]ethan-1-one hydrochloride], for which the IC50 in experiment [2] is 0.92 µM; in experiment [1] (setting [5]), 0.32 µM.

As to `COC[C@H]1CN[C@H](C)CN1CC(=O)N1CC(C)(C)c2cc(=O)n(C)cc21` [Example 66, 1-[2-((2R,5R)-2-Methoxymethyl-5-methyl-piperazin-1-yl)-acetyl]-3,3,6-trimethyl-1,2,3,6-tetrahydro-pyrrolo[2,3-c]pyridin-5-one hydrochloride salt], in experiment [2] (1 h, @ 10 μM, read-out: IC50 or PI Xiap: PI), the inhibition at 10 µM came to 44%. Further, the inhibition at 3 µM in experiment [1] (3 h, Probe B, @ 3 μM, read-out: IC50 or PI cIAP1: PI) amounted to 53%.

Take `C[C@@H]1CN(CC(=O)N2CCc3ccc(N(C)c4ccccc4)cc32)CCN1` [Example 2, 1-[6-(Methyl-phenyl-amino)-2,3-dihydro-indol-1-yl]-2-((R)-3-methyl-piperazin-1-yl)-ethanone Trifluoroacetate salt]: the IC50 was determined as 41 µM in experiment [2] and 79 µM in experiment [1] (setting [6]).

Turning to `C[C@@H]1CN(CC(=O)N2CC(C)(C)c3ccc(Cl)cc32)[C@@H](Cn2cccn2)CN1` [Example 138, 1-(6-Chloro-3,3-dimethyl-2,3-dihydro-1H-indol-1-yl)-2-[(2R,5R)-5-methyl-2-(1H-pyrazol-1-ylmethyl)piperazin-1-yl]ethan-1-one hydrochloride], the IC50 in experiment [2] was 0.64 µM; in experiment [1] (setting [5]), 0.33 µM.

On to `C[C@@H]1CN(CC(=O)N2CCc3cc(F)c(-c4ccccc4)cc32)CCN1` [Example 24, 1-(5-Fluoro-6-phenyl-2,3-dihydro-indol-1-yl)-2-((R)-3-methyl-piperazin-1-yl)-ethanone hydrochloride salt], for which the IC50 in experiment [2] is 7.4 µM; in experiment [1], less than 10 µM; in experiment [1] (setting [4]), 2 µM.

Turning to `C[C@@H]1CN([C@@H](C)C(=O)N2CC(C)(C)c3ccc(C#N)cc32)CCN1` [Example 196, 3,3-Dimethyl-1-[(2S)-2-[(3R)-3-methylpiperazin-1-yl]propanoyl]-2,3-dihydro-1H-indole-6-carbonitrile hydrochloride], the IC50 amounted to 5.6 µM in experiment [2] and 31 µM in experiment [1] (setting [5]).

As for `CC1(C)CN(C(=O)CN2CCN[C@@H](CF)C2)c2cc(Cc3ccccc3)ncc21` [Example 116, 1-{6-Benzyl-3,3-dimethyl-1H,2H,3H-pyrrolo[3,2-c]pyridin-1-yl}-2-[(3R)-3-(fluoromethyl)piperazin-1-yl]ethan-1-one], in experiment [1] (setting [5]), the IC50 came to 1.9 µM.

`C[C@@H]1CN(CC(=O)N2CC(C)(C)c3ncc(Cc4ccc(F)cc4)cc32)CCN1` [Example 265, 1-[6-(4-Fluoro-benzyl)-3,3-dimethyl-2,3-dihydro-pyrrolo[3,2-b]pyridin-1-yl]-2-((R)-3-methyl-piperazin-1-yl)-ethanone]: the IC50 was less than 10 µM in experiment [1] and 0.041 µM in experiment [1] (setting [6]).

Take `C[C@@H]1CN(CC(=O)N2CCc3ccc(S(C)(=O)=O)cc32)CCN1` [Example 30, 1-(6-Methane-sulfonyl-2,3-dihydro-indol-1-yl)-2-((R)-3-methyl-piperazin-1-yl)-ethanone hydrochloride salt]: the inhibition at 99 µM in experiment [1] (3 h, Probe A, @ 99 μM, read-out: IC50 or PI cIAP1: PI) is 60%.

Consider `C[C@@H]1CN(CC(=O)N2CC(C)(C)c3ncc(C(C)(F)F)cc32)[C@@H](CN2CCCC2=O)CN1` [Example 188, 1-{[(2R,5R)-1-{2-[6-(1,1-Difluoroethyl)-3,3-dimethyl-1H,2H,3H-pyrrolo[3,2-b]pyridin-1-yl]-2-oxoethyl}-5-methylpiperazin-2-yl]methyl}pyrrolidin-2-one dihydrochloride], for which the IC50 in experiment [1] (setting [6]) is 0.04 µM.

With `C[C@@H]1CN(CC(=O)N2CCc3ccc(F)cc32)CCN1` [Example 10, 1-(6-Fluoro-2,3-dihydro-indol-1-yl)-2-((R)-3-methyl-piperazin-1-yl)-ethanone], the inhibition at 160 µM in experiment [1] (setting [3]) was 51%.

Take `CC(C)c1ccc2c(c1)N(C(=O)CN1CCN[C@H](C)C1)CC2` [Example 13, 1-(6-Isopropyl-2,3-dihydro-indol-1-yl)-2-((R)-3-methyl-piperazin-1-yl)-ethanone]: the IC50 in experiment [1] (setting [4]) came to 63 µM.

As for `C[C@@H]1CN(CC(=O)N2CCc3ccc(Nc4ccccc4)cc32)CCN1` [Example 3, 2-((R)-3-Methyl-piperazin-1-yl)-1-(6-phenylamino-2,3-dihydro-indol-1-yl)-ethanone Trifluoroacetate salt], in experiment [1] (3 h, read-out: IC50 or PI cIAP1: PI), the inhibition at 99 µM stood at 48%.

As for `COC[C@H]1CN[C@H](C)CN1CC(=O)N1CC(C)(Cc2ccccc2)c2ccc(Cl)cc21` (stereo partly drawn) [Example 107, 1-(3-Benzyl-6-chloro-3-methyl-2,3-dihydro-1H-indol-1-yl)-2-[(2R,5R)-2-(methoxymethyl)-5-methylpiperazin-1-yl]ethan-1-one, hydrochloride salt], the IC50 in experiment [1] (setting [5]) turned out to be 0.55 µM.

On to `Cc1ccc2c(c1)N(C(=O)CN1CCN[C@H](C)C1)CC2` [Example 6, 1-(6-Methyl-2,3-dihydro-indol-1-yl)-2-((R)-3-methyl-piperazin-1-yl)-ethanone], for which the IC50 in experiment [1] (setting [4]) came out at 95 µM.

For `C[C@@H]1CN(CC(=O)N2CCc3ccc(C(F)(F)F)cc32)CCN1` [Example 22, 2-((R)-3-Methyl-piperazin-1-yl)-1-(6-trifluoromethyl-2,3-dihydro-indol-1-yl)-ethanone], the IC50 in experiment [1] (setting [4]) was determined as 36 µM.

For the molecule `COC[C@H]1CN[C@H](C)CN1CC(=O)N1C[C@@](C)(c2ccccc2)c2ccc(C#N)cc21` [Example 139, (3S)-1-{2-[(2R,5R)-2-(Methoxymethyl)-5-methylpiperazin-1-yl]acetyl}-3-methyl-3-phenyl-2,3-dihydro-1H-indole-6-carbonitrile], the concentration for half-maximal inhibition (IC50) in experiment [2] is 0.23 µM.

For the molecule `CC1(C)CN(C(=O)CN2CCN[C@H](CF)C2)c2cc(Cc3ccccc3)ncc21` [Example 115, 1-{6-Benzyl-3,3-dimethyl-1H,2H,3H-pyrrolo[3,2-c]pyridin-1-yl}-2-[(3S)-3-(fluoromethyl)piperazin-1-yl]ethan-1-one], the IC50 in experiment [1] (setting [5]) is 0.67 µM.

`C[C@@H]1CN(CC(=O)N2CCc3ccc(Cl)cc32)CCN1` [Example 4, 1-(6-Chloro-2,3-dihydro-indol-1-yl)-2-((R)-3-methyl-piperazin-1-yl)-ethanone]: the IC50 in experiment [1] (setting [4]) was determined as 29 µM.

Molecule `CC(C)[C@H]1CN[C@H](C)CN1CC(=O)N1CCc2ccc(Br)cc21` [Example 12, 1-(6-Bromo-2,3-dihydro-indol-1-yl)-2-((2S,5R)-2-isopropyl-5-methyl-piperazin-1-yl)-ethanone] yielded a 50% inhibitory concentration (IC50) in experiment [1] of less than 10 µM.

On to `CC1(C)CN(C(=O)CN2CCNC(CF)C2)c2cc(Cc3ccccc3)ncc21` (centres unmarked) [Example 114, 1-{6-Benzyl-3,3-dimethyl-1H,2H,3H-pyrrolo[3,2-c]pyridin-1-yl}-2-[3-(fluoromethyl)piperazin-1-yl]ethan-1-one], for which the IC50 in experiment [1] (setting [5]) is 1.5 µM.
